From patent publication US7989495B2, “Compositions and methods for inhibiting NF-κB mediated tumorigenicity and adhesion dependent survival of cancer cells” (University of Utah Research Foundation, priority 2002, dated 2011) come the findings set out here.

The subject of one experiment is HT-29 cells. As to the kind of experiment: One-hour cell adhesion assay (crystal violet). In kind it is cell-based. As to conditions: HT-29 pretreated three days (3 hours elsewhere in the source) with various concentrations. As to the method:
The data points represent the average percent of annexin V-positive, propidium iodide-negative cells (of the total cells counted) from triplicate experiments. The error bars represent the standard error of the means. […] The results shown are a graphic representation of individual flow cytometry results expressed as the percentage of cells that were annexin V-positive of those that excluded propidium iodide. […] An immunoblot of the lysates for cleaved PARP was performed. Each lane represents equal total protein concentrations. […] The cells were allowed to adhere to plastic dishes for 1 hour after which they were washed gently in PBS and stained with crystal violet. The crystal violet stained cells were solubilized in deoxycholate and the absorbance detected in a spectrophotometer at 590 nm. The adherent cells were expressed as a fraction of the controls Each data point represents the average of triplicate experiments and the error bars the standard errors of the means.
Even though BAY 11-7085 induced a loss of cell adhesion, it was important to show whether HT-29 cells were actually susceptible to anoikis.

For experiment [1], the system named is HCT-116 cells injected intraperitoneally. As to the kind of experiment: Intraabdominal seeding (metastasis) model in athymic mice. In kind it is in vivo. Conditions: HCT-116 intraperitoneal; pretreated, then twice weekly; after 21 days. The source says: (§1) FIGS. 6A, B, C show tumor implants of the liver of three athymic mice 21 days after receiving intraperitoneal injections of HT-29 cells. The mice were pretreated and treated for a total of 21 days with DMSO twice weekly. […] The mouse was pretreated and treated for a total of 21 days with DMSO twice weekly. […] This section was obtained from the tumor implant from the mouse in FIG. 6A. […] FIG. 6G, (liver), FIG. 6H, (abdominal wall), and FIG. 6I, (intestinal) show tumor implants in three athymic mice 21 days after receiving intraabdominal injections of HCT-116 cells. All of the mice were treated with 5 mg/kg of BAY 11-7085 twice weekly.
(§2) HT-29 and HCT-116 cells were harvested in 0.25% trypsin-PBS-EDTA, washed once in media and PBS, and resuspended in PBS at 1 million cells per 200 μL. One million cells were injected either subcutaneously in the backs or intraperitoneally in 5 week old female nu/nu athymic mice (Charles River Labs). For the mice with subcutaneous tumors, the tumors were allowed to establish themselves for 10 days after which they were randomized to BAY 11-7085 or DMSO. For the mice with intraperitoneal tumors, the mice received DMSO or BAY 11-7085 (5 mg/kg) 24 hours before the cancer cells were injected intrapentoneally. All mice received BAY 11-7085 (5 mg/kg) or an equal volume of DMSO (˜200 μL) twice weekly for 21-32 days. Subcutaneous tumor sizes were determined by measuring the length and width with calipers. These studies were approved by the U. of Utah Institutional Review Board and Institutional Animal Care and Use Committee and performed in the Animal Resource Center. Mice were euthanized when they experienced a greater than 10% loss in body weight or if they appeared ill. […]
(§3) Since BAY 11-7085 induced apoptosis of readherent HT-29 cells, an in vivo model was used to test the ability of the drug to prevent metastasis by seeding of intraabdominal tissue with colon cancer cells. […] Seeding results from the transient suspension of cancer cells, through a loss of adhesion either naturally ro because of surgical displacement, followed by readhesion to other tissues. […]

Experiment [2] concerns HT-29 cells injected intraperitoneally. Described as above. In kind it is in vivo. Conditions: HT-29 intraperitoneal; pretreated 24 hours earlier, then twice weekly, 21 days; n = 6.
Excerpt: as §1, §2, §3

In experiment [3] the test system is FLIP (54 kilodalton long isoform). Description: Immunoblot of anti-apoptotic proteins in HT-29 cells. As to conditions: adherent HT-29; 20 μM. Format: cell-based. As to the method: (§4) The data points represent the means of triplicate experiments and the error bars the standard errors of the means. […] The percent of apoptotic cells was then determined by the annexin V assay. […] The results shown are typical of two separate experiments. […] Immunoblots were performed for c-IAP-2, TRAF-1, TRAF-2, and FLIP. All lanes contain equal total protein.
(§5) The cells were washed twice in ice cold PBS and then lysed in 4° C. lysis buffer (50 mM HEPES, 150 mM NaCl, 1.5 mM MgCl2, 1 mM EGTA, 100 mM NaF, 10 mM Na2PO4, 1 mM Na3VO4, 10% glycerol, 1% Triton X-100, and 1 μg/ml each of aprotinin, leupeptin, chymostatin, pepstatin) and clarified at 12,000 rpm at 4° C. for 15 minutes. The lysates were normalized for total protein concentration. Aliquots of the lysates were then mixed 1:1 in sample buffer (125 mM Tris-HCl (pH 6.8), 20% glycerol. 4% sodium dodecyl sulfate, 2% beta-mercaptoethanol, 10 μg/ml bromophenol blue) and boiled for 3 minutes. The samples were loaded onto SDS-PAGE gels (7.5 or 10% acrylamide). The proteins were transferred to nitrocellulose from the gels, then incubated in blocking buffer (1% bovine serum albumin (Bio-Rad), 100 mM Tris-Cl (pH7.4), 0.9% NaCl, 0.1% Nonidet) overnight at 4° C.
(§6) For immunodetection, the blocked blots were probed with primary antibody for 2 hours at 4° C. on a rocker. The blots were washed twice for 10 minutes each in blocking buffer, then incubated with a 1:2000 dilution of a rabbit-anti-mouse secondary antibody (for monoclonal primary antibodies; for polyclonal antibodies, this step was skipped). After two washes in blocking buffer (150 mM NaCl, 20 mM Tris pH 7.4, 0.5% Tween 20, 5% bovine serum albumin, and 0.2 gm/500 ml final concentration of sodium azide), the blots were finally incubated with a 1:2000 dilution of alkaline phosphatase-conjugated rabbit-anti-mouse antibodies (Jackson) in blocking buffer. Alkaline phosphatase was detected by a colorimetric reaction using a BCIP (5-Bromo-4-Chloro-3-Indolyl phosphate)/NBT (Nitroblue tetrazolium) kit (Zymed).

A further experiment concerns TRAF-1. The description is as above. Format: cell-based. Conditions: 20 μM, 8 hours. As to the method:
as §4, §5, §6

For another experiment, the system named is TRAF-2. The experiment is described as above. In kind it is cell-based. Conditions: 20 μM, 8 hours. As to the method: as §4, §5, §6
A further experiment deals with c-IAP-1. Described as above. As to conditions: transiently suspended or adherent HT-29; 20 μM; 8 hours. Format: cell-based. Here is the method: as §4, §5, §6

“And” between values parts separate entries of the source, which are not always exact repeats. Identical values can stand only once.

Take `CC(C)(C)c1ccc(S(=O)(=O)/C=C/C#N)cc1` [BAY 11-7085, (2E)-3-[4-(tertiarybutylphenyl)sulfonyl]-2-propenenitrile]: the “inhibition of cell adhesion” value in the experiment with HT-29 cells was “significant and rapid inhibition of cell adhesion at high concentrations”. In experiment [1], the “metastases of parietal and visceral peritoneum” value is on record as “clear evidence of metastases”. Besides, in experiment [2], the “Liver Metastases (mice with metastases / mice)” value is “none of the 6 and 0/6”; the “Peritoneal Metastases (mice with metastases / mice)” value is 2 of 6 and 2/6. Further, in experiment [3], the “expression of the 54 kilodalton (long) isoform of FLIP” value is given as “only a slight diminution”. Further, the TRAF-1 protein expression entry with TRAF-1 is listed as “decrease in the protein expression”. For the same molecule, the TRAF-2 protein expression result in the experiment with TRAF-2 is “decrease in the protein expression”. The c-IAP-1 protein expression result in the experiment with c-IAP-1 is on record as “No decrease in c-IAP-1 protein expression”.
